Each block holds one compound with its values, some of them ahead of it.
Key:
[1] = target: T1, Hepatocyte nuclear factor 4-alpha (Homo sapiens) (UniProt P41235); assay: Selectivity interaction (Reporter gene assay) EUB0001170a HNF4A; set-up: recommended concentration 1 uM
T1 sequence (whole entry): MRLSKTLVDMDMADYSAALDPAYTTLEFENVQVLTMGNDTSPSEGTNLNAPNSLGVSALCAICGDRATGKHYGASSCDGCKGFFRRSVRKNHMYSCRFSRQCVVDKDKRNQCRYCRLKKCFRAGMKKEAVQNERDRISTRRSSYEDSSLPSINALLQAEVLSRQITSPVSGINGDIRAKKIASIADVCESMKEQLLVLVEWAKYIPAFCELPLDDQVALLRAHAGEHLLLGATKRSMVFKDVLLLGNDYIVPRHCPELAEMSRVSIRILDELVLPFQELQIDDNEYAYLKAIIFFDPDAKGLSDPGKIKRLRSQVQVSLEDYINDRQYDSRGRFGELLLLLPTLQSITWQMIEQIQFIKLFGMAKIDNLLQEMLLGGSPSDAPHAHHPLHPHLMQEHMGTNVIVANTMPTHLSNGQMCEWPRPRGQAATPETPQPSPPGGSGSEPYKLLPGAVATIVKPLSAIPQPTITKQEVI

[2] = target: T2, Nuclear receptor subfamily 2 group C member 1 (Homo sapiens) (UniProt P13056); assay: Selectivity interaction (Reporter gene assay) EUB0001170a NR2C1; set-up: recommended concentration 1 uM
T2 sequence (whole entry): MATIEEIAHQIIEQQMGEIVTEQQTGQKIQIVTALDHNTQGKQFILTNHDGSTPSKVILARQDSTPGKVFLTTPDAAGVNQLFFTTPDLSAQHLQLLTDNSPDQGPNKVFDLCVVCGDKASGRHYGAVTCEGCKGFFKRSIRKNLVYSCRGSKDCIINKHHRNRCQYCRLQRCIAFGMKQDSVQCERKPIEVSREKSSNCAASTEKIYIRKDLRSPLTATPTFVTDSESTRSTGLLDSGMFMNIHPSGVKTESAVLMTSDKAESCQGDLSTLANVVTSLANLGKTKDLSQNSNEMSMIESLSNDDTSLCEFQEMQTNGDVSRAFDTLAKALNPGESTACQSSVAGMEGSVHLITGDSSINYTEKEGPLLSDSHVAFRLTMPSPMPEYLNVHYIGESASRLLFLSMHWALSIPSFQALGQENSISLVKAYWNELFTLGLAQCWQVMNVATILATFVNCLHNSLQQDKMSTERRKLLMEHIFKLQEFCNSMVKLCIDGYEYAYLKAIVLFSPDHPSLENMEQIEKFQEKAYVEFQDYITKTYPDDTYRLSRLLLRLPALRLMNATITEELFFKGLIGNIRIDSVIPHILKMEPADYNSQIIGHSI

[3] = target: Nuclear receptor subfamily 2 group E member 1 (Homo sapiens) (UniProt Q9Y466); assay: Selectivity interaction (Reporter gene assay) EUB0001170a NR2E1; set-up: recommended concentration 1 uM
[4] = target: Nuclear receptor subfamily 4immunitygroup A member 1 (Homo sapiens) (UniProt P22736); assay: Selectivity interaction (Reporter gene assay) EUB0001170a NR4A1; set-up: recommended concentration 1 uM
[5] = target: Steroidogenic factor 1 (Homo sapiens) (UniProt Q13285); assay: Selectivity interaction (Reporter gene assay) EUB0001170a NR5A1; set-up: recommended concentration 1 uM
[6] = target: T3, Alpha trans-inducing protein (Human alphaherpesvirus 1) (UniProt A0A5J6DW59); assay: Selectivity interaction (Reporter gene assay) EUB0001170a UL48; set-up: recommended concentration 1 uM
[7] = target: T4, Retinoic acid receptor RXR-alpha (Homo sapiens) (UniProt P19793); assay: Selectivity interaction (Reporter gene assay) EUB0001170a RXRA; set-up: recommended concentration 1 uM; details: reference bexarotene 1 uM, Selectivity number of off-targets 0.0, Selectivity number of targets 1.0, Source Knowledge inhouse
T4 sequence (whole entry): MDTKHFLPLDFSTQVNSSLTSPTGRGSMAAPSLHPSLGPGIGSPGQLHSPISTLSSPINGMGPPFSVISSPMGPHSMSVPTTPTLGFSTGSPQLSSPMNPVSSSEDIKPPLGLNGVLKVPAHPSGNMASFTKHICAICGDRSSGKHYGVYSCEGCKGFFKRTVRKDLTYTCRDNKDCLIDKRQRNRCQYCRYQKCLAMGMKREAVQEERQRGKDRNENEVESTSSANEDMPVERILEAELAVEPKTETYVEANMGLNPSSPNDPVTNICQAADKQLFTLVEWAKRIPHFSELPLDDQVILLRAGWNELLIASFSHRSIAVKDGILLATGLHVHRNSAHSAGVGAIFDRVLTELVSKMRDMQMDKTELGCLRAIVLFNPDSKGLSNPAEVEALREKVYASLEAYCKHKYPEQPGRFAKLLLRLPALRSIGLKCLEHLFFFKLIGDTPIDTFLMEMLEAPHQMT

[8] = target: Oxysterols receptor LXR-alpha (Homo sapiens) (UniProt Q13133); assay: Selectivity interaction (Reporter gene assay) EUB0001174a NR1H3; set-up: recommended concentration 1 uM; details: screened at recom. conc., Selectivity number of off-targets 1.0, Selectivity number of targets 19.0, Source Knowledge inhouse
[9] = target: T5, Oxysterols receptor LXR-beta (Homo sapiens) (UniProt P55055); assay: Selectivity interaction (Reporter gene assay) EUB0001174a NR1H2; set-up: recommended concentration 1 uM; details: screened at recom. conc., Selectivity number of off-targets 1.0, Selectivity number of targets 19.0, Source Knowledge inhouse
T5 sequence (whole entry): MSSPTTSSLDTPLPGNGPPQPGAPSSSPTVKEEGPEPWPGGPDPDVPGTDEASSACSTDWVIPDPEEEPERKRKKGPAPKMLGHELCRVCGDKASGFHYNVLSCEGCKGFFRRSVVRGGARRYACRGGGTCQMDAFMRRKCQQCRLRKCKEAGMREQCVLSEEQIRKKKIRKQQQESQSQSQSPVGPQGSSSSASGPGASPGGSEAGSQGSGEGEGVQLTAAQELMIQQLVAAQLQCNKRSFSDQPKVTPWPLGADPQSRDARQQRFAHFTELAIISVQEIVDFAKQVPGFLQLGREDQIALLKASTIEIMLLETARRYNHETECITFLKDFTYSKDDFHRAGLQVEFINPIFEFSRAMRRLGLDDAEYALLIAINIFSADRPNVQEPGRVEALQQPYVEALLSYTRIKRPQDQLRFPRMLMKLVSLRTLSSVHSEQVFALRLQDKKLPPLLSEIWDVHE

[10] = target: Nuclear receptor subfamily 2 group E member 1 (Homo sapiens) (UniProt Q9Y466); assay: Selectivity interaction (Reporter gene assay) EUB0001174a NR2E1; set-up: recommended concentration 1 uM; details: screened at recom. conc., Selectivity number of off-targets 1.0, Selectivity number of targets 5.0, Source Knowledge inhouse
[11] = target: T1, Hepatocyte nuclear factor 4-alpha (Homo sapiens); assay: Selectivity interaction (Reporter gene assay) EUB0001174a HNF4A; set-up: recommended concentration 1 uM
[12] = target: T2, Nuclear receptor subfamily 2 group C member 1 (Homo sapiens); assay: Selectivity interaction (Reporter gene assay) EUB0001174a NR2C1; set-up: recommended concentration 1 uM
[13] = target: Nuclear receptor subfamily 4immunitygroup A member 1 (Homo sapiens) (UniProt P22736); assay: Selectivity interaction (Reporter gene assay) EUB0001174a NR4A1; set-up: recommended concentration 1 uM
[14] = target: Steroidogenic factor 1 (Homo sapiens) (UniProt Q13285); assay: Selectivity interaction (Reporter gene assay) EUB0001174a NR5A1; set-up: recommended concentration 1 uM
[15] = target: T3, Alpha trans-inducing protein (Human alphaherpesvirus 1); assay: Selectivity interaction (Reporter gene assay) EUB0001174a UL48; set-up: recommended concentration 1 uM
[16] = target: T4, Retinoic acid receptor RXR-alpha (Homo sapiens); assay: Selectivity interaction (Reporter gene assay) EUB0001174a RXRA; set-up: recommended concentration 1 uM; details: reference bexarotene 1 uM, Selectivity number of off-targets 0.0, Selectivity number of targets 1.0, Source Knowledge inhouse
[17] = target: DNA (cytosine-5)-methyltransferase 3B (Homo sapiens) (UniProt Q9UBC3); assay: (§1) Selectivity interaction (Enzymatic assay (human methyltransferases)) EUB0002223a DNMT3B; set-up: recommended concentration 1 uM; details: at 50 µM
[18] = target: DNA (cytosine-5)-methyltransferase 3B (Homo sapiens) (UniProt Q9UBC3); assay: as §1; set-up: recommended concentration 1 uM; details: at 50 µM; remark: listed apart in the source
[19] = target: DNA (cytosine-5)-methyltransferase 3B (Homo sapiens) (UniProt Q9UBC3); assay: as §1; set-up: recommended concentration 1 uM; details: at 50 µM; remark: listed apart in the source
[20] = target: DNA (cytosine-5)-methyltransferase 3B (Homo sapiens) (UniProt Q9UBC3); assay: as §1; set-up: recommended concentration 1 uM; details: at 50 µM; remark: listed apart in the source
[21] = target: DNA (cytosine-5)-methyltransferase 3A (Homo sapiens) (UniProt Q9Y6K1); details: at 50 µM
[22] = target: DNA (cytosine-5)-methyltransferase 3A (Homo sapiens) (UniProt Q9Y6K1); details: at 50 µM; remark: listed apart in the source
[23] = target: DNA (cytosine-5)-methyltransferase 3A (Homo sapiens) (UniProt Q9Y6K1); details: at 50 µM; remark: listed apart in the source
[24] = target: DNA (cytosine-5)-methyltransferase 3A (Homo sapiens) (UniProt Q9Y6K1); details: at 50 µM; remark: listed apart in the source
[25] = target: T1, Hepatocyte nuclear factor 4-alpha (Homo sapiens); assay: Selectivity interaction (Reporter gene assay) EUB0001477a HNF4A; set-up: recommended concentration 1 uM
[26] = target: T2, Nuclear receptor subfamily 2 group C member 1 (Homo sapiens); assay: Selectivity interaction (Reporter gene assay) EUB0001477a NR2C1; set-up: recommended concentration 1 uM
[27] = target: Nuclear receptor subfamily 2 group E member 1 (Homo sapiens) (UniProt Q9Y466); assay: Selectivity interaction (Reporter gene assay) EUB0001477a NR2E1; set-up: recommended concentration 1 uM
[28] = target: Nuclear receptor subfamily 4immunitygroup A member 1 (Homo sapiens) (UniProt P22736); assay: Selectivity interaction (Reporter gene assay) EUB0001477a NR4A1; set-up: recommended concentration 1 uM
[29] = target: Steroidogenic factor 1 (Homo sapiens) (UniProt Q13285); assay: Selectivity interaction (Reporter gene assay) EUB0001477a NR5A1; set-up: recommended concentration 1 uM
[30] = target: T3, Alpha trans-inducing protein (Human alphaherpesvirus 1); assay: Selectivity interaction (Reporter gene assay) EUB0001477a UL48; set-up: recommended concentration 1 uM
[31] = target: T4, Retinoic acid receptor RXR-alpha (Homo sapiens); assay: Selectivity interaction (Reporter gene assay) EUB0001477a RXRA; set-up: recommended concentration 1 uM; details: reference bexarotene 1 uM, Selectivity number of off-targets 0.0, Selectivity number of targets 1.0, Source Knowledge inhouse
[32] = target: T1, Hepatocyte nuclear factor 4-alpha (Homo sapiens); assay: Selectivity interaction (Reporter gene assay) EUB0001483aCl HNF4A; set-up: recommended concentration 10 uM
[33] = target: T2, Nuclear receptor subfamily 2 group C member 1 (Homo sapiens); assay: Selectivity interaction (Reporter gene assay) EUB0001483aCl NR2C1; set-up: recommended concentration 10 uM
[34] = target: Nuclear receptor subfamily 2 group E member 1 (Homo sapiens) (UniProt Q9Y466); assay: Selectivity interaction (Reporter gene assay) EUB0001483aCl NR2E1; set-up: recommended concentration 10 uM
[35] = target: Nuclear receptor subfamily 4immunitygroup A member 1 (Homo sapiens) (UniProt P22736); assay: Selectivity interaction (Reporter gene assay) EUB0001483aCl NR4A1; set-up: recommended concentration 10 uM
[36] = target: Steroidogenic factor 1 (Homo sapiens) (UniProt Q13285); assay: Selectivity interaction (Reporter gene assay) EUB0001483aCl NR5A1; set-up: recommended concentration 10 uM
[37] = target: T3, Alpha trans-inducing protein (Human alphaherpesvirus 1); assay: Selectivity interaction (Reporter gene assay) EUB0001483aCl UL48; set-up: recommended concentration 10 uM
[38] = target: T4, Retinoic acid receptor RXR-alpha (Homo sapiens); assay: Selectivity interaction (Reporter gene assay) EUB0001483aCl RXRA; set-up: recommended concentration 10 uM; details: reference bexarotene 1 uM, Selectivity number of off-targets 0.0, Selectivity number of targets 1.0, Source Knowledge inhouse

T3 sequence (A0A5J6DW59 as listed by the source): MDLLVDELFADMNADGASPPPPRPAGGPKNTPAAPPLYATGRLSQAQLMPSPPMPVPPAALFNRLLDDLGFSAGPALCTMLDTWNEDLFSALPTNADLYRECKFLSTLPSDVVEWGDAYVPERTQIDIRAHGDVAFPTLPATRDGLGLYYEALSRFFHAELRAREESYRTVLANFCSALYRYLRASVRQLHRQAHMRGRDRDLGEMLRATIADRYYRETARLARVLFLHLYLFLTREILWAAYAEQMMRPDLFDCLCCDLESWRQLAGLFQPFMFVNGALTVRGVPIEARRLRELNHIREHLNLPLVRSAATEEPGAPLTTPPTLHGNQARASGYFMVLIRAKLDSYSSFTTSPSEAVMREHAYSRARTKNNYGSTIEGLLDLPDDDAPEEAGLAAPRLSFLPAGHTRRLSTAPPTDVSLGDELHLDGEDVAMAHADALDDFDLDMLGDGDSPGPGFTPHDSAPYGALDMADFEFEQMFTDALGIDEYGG
Sequence of Nuclear receptor subfamily 4immunitygroup A member 1 (Homo sapiens) (P22736 whole entry): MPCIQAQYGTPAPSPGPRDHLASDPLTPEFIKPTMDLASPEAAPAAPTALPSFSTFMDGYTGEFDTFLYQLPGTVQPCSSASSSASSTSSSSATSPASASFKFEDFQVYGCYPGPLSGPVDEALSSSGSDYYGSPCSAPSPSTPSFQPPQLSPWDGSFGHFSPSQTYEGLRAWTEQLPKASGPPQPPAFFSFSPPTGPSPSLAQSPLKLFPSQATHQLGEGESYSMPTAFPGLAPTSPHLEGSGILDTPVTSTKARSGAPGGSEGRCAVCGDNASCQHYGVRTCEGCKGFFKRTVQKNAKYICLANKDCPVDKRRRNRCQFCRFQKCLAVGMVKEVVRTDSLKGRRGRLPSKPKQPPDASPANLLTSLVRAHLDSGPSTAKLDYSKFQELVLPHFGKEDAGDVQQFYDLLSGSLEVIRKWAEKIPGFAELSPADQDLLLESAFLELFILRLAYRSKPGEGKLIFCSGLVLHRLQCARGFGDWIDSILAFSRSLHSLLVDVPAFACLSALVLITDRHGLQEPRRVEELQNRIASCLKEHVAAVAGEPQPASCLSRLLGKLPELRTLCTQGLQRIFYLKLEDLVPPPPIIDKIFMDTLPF
Sequence of Steroidogenic factor 1 (Homo sapiens) (Q13285 whole entry): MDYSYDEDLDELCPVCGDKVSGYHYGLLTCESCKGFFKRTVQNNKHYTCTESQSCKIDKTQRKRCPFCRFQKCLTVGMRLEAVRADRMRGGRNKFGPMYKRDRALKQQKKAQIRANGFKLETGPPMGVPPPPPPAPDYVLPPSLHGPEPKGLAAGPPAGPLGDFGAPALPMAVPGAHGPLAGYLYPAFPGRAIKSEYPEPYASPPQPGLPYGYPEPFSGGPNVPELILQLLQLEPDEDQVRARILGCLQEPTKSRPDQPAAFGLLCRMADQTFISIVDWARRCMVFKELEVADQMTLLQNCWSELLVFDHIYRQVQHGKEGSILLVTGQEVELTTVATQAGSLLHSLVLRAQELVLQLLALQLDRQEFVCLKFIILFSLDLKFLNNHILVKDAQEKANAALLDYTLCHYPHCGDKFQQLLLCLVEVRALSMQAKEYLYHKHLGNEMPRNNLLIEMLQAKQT
Sequence of DNA (cytosine-5)-methyltransferase 3A (Homo sapiens) (Q9Y6K1 whole entry, looked up): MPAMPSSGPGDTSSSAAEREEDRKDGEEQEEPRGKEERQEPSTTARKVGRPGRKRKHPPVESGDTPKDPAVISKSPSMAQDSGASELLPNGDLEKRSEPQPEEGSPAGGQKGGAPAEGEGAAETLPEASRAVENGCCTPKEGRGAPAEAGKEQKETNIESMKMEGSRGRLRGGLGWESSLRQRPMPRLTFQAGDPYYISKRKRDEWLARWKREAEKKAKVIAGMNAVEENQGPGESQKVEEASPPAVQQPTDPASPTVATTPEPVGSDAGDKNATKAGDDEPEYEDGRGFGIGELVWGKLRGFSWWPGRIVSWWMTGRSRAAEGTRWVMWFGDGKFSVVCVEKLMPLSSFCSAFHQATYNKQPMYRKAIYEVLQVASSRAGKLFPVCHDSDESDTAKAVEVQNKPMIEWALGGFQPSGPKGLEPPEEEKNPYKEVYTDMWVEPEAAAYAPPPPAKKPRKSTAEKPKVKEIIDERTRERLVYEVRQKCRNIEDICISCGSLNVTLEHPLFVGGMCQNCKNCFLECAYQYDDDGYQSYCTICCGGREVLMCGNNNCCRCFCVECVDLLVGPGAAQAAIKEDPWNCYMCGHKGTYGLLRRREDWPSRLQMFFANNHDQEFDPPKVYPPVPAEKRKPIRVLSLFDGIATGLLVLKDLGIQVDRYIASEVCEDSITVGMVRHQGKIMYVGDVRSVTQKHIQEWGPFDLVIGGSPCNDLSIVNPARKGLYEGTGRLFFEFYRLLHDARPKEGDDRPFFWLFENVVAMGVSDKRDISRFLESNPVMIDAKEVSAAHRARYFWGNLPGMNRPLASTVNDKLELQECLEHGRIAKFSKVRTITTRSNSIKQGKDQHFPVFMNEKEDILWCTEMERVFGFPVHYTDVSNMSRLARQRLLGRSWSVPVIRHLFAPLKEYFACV
Sequence of Nuclear receptor subfamily 2 group E member 1 (Homo sapiens) (Q9Y466 whole entry): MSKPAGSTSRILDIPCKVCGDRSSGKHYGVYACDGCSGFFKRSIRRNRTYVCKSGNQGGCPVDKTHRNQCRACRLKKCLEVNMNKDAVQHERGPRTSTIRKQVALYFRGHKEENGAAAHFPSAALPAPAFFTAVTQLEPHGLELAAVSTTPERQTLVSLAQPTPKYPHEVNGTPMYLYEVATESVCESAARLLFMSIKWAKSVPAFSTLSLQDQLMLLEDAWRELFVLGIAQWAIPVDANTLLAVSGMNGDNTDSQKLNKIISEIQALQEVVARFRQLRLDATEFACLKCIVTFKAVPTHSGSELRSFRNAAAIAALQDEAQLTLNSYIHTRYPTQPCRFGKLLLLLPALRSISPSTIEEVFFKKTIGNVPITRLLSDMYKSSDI
Sequence of Oxysterols receptor LXR-alpha (Homo sapiens) (Q13133 whole entry): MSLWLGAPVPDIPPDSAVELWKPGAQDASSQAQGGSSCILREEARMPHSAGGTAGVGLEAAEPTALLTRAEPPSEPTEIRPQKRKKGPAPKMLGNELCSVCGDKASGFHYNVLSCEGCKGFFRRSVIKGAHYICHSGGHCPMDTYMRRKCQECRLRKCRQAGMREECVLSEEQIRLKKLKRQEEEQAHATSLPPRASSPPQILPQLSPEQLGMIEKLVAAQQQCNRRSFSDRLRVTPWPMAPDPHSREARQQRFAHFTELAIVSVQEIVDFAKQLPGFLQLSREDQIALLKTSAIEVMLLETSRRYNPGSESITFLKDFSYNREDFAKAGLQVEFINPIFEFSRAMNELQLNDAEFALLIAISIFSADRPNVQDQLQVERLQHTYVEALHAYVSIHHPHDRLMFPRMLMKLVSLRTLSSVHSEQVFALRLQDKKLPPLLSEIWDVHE

Structure (SMILES): CCNC(=O)NCCSC[C@H]1O[C@@H](n2cnc3c(N)ncnc32)[C@H](O)[C@@H]1O
Enzyme activity [17]: 45%
Enzyme activity [18]: 45%
Enzyme activity [19]: 45%
Enzyme activity [20]: 45%
Enzyme activity [21]: 38%
Enzyme activity [22]: 38%
Enzyme activity [23]: 38%
Enzyme activity [24]: 38%

Structure (SMILES): Clc1ccc(-c2nc3sccn3c2/C=N/OCc2ccc(Cl)c(Cl)c2)cc1
Fold activation [25]: 1.11
Fold activation [26]: 1.23
Remaining activity [27]: 0.989
Remaining activity [28]: 0.934
Fold activation [29]: 1.19
P-value [30]: 0.000158
Relative activation [31]: 0.637%

Structure (SMILES): CN1CCN(c2ccc(/C=C(\C#N)c3ccccc3Br)cc2)CC1
Fold activation [32]: 1.03
Fold activation [33]: 1.32
Fold activation [34]: 1.32
Fold activation [35]: 1.35
Fold activation [36]: 1.5
P-value [37]: 7.2e-05
Relative activation [38]: 1.47%

More lines, now with the values ahead:

Fold activation [1]: 1.08
Remaining activity [2]: 0.916
Remaining activity [3]: 0.839
Fold activation [4]: 1.14
Fold activation [5]: 1.12
P-value [6]: 0.00111
Relative activation [7]: 0.336%
Structure (SMILES): CC(C)C(=O)N1CCC(c2cn(C)c3ncc(NC(=O)c4cccc(C#N)c4)c(C(F)(F)F)c23)CC1

Remaining activity [8]: 0.724
Remaining activity [9]: 0.617
Remaining activity [10]: 0.432
Fold activation [11]: 1.1
Remaining activity [12]: 0.543
Remaining activity [13]: 0.847
Remaining activity [14]: 0.982
P-value [15]: 1.23e-07
Relative activation [16]: 0.49%
Structure (SMILES): COc1cccc(Cn2cc(C(=O)Nc3ccc(C)c(S(=O)(=O)N4CCOCC4)c3)c(-c3ccc(C)cc3)n2)c1

From ChEMBL document CHEMBL5715260, “Selectivity Literature for EUbOPEN Chemogenomic Library” (2024)
